Laboratory results taken from patent US10899628B2, “Cerium sulfate chelated sulfur dioxide, a preparation method and a use thereof” (South China Normal University, priority 2017, dated 2021).
Read-outs that look alike come from different tables or passages of the source.

How the values were obtained:
[1] = background statement, cited from earlier work
[2] = thermogravimetric analysis (TGA); format: physicochemical
Protocol: It is known from the TGA curve that the weight loss between 30.5° C. and 150° C. corresponds to the content of crystal water in the chelated molecules.

[3] = solubility in water, aqueous DMSO and DMSO; format: physicochemical

weight loss (crystal water) ([2]; between 30.5° C. and 150° C.) [%] | product remained in the final residue (thermal stability) ([2]; final residue) [%] | solubility in DMSO ([3]; DMSO) | solubility in about 4% aqueous solution of DMSO ([3]; about 4% aqueous solution of dimethyl sulfoxide) | Compound | solubility in a solution of a certain acidity ([1]; acidic solution) | solubility in water ([1]; water) | solubility in water ([3]; water, standing for a period of time or heating under water bath of about 45 to 50° C.)
– | – | – | – | O=S(=O)([O-])[O-].O=S(=O)([O-])[O-].[Ce+4] [Anhydrous cerium sulfate, anhydrous cerium sulfate] | highly soluble | not highly soluble | –
11 | 72.51 | insoluble | soluble | cerium sulfate chelated sulfur dioxide | – | – | forms an emulsion with water, and can dissolve after standing for a period of time or heating
